Measured values: ChEMBL document CHEMBL3638875, “Pyrazol-4-yl-heterocyclyl-carboxamide compounds and methods of use” (2014)

What was measured:
[1] = biological target: Serine/threonine-protein kinase pim-2 (Homo sapiens, UniProt Q9P1W9); assay: (§1) A fluorescent-labeled Pim-specific peptide substrate, was custom synthesized by American Peptide Company (Sunnyvale, Calif.). Reaction Buffer contained 10 mM HEPES, pH 7.2, 10 mM MgCl2, 0.01% Tween 20, 2 mM DTT. Termination Buffer contained 190 mM HEPES, pH 7.2, 0.015% Brij-35, 0.2% Coating Reagent 3 (Caliper Life Sciences, Hopkinton, Mass.), 20 mM EDTA. Separation Buffer contained 100 mM HEPES, pH 7.2, 0.015% Brij-35, 0.1% Coating Reagent 3, 1:200 Coating Reagent 8 (Caliper Life Sciences, Hopkinton, Mass.), 10 mM EDTA and 5% DMSO.
Sequence of Serine/threonine-protein kinase pim-2 (Q9P1W9 whole entry, the tested form may be a part): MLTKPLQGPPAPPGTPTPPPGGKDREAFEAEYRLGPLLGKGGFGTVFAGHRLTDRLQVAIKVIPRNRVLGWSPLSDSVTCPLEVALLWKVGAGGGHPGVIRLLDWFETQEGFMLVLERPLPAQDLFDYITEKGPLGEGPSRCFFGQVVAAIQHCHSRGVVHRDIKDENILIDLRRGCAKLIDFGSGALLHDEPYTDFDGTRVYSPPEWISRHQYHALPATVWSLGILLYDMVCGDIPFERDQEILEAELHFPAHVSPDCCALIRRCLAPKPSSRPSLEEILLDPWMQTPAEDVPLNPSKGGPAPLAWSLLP

[2] = biological target: Serine/threonine-protein kinase pim-3 (Homo sapiens, UniProt Q86V86); assay: as §1, with “Binding Assay: PIM-1, -2, and -3 enzymes were generated as fusion proteins expressed in bacteria and purified by IMAC column chromatography (Sun, X., Chiu, J. F., and He, Q. Y. (2005) Expert Rev. Proteomics, 2:649-657). A fluorescent-labeled” for “A fluorescent-labeled”

Cn1ncc(NC(=O)c2nc(Br)cnc2N)c1N1CCC[C@H](N)C1
Ki [1]: 154 nM | Ki [2]: 68.1 nM
